From ChEMBL document CHEMBL1152318, “Antitumor psoropermum xanthones and sarcomelicope acridones: privileged structures implied in DNA alkylation” (J Nat Prod, 2009) come the findings set out here.

The nature of experiment [1]: Cytotoxicity against human KB-3-1 cells. Type of experiment: functional, cell-based.
Experiment [2] has as its system L1210. The experiment can be described thus: Cytotoxicity against mouse L1210 cells. Type of experiment: functional, cell-based.
Experiment [3] deals with L1210. The experiment can be described thus: Ratio of acronycine IC50 to compound IC50 for mouse L1210 cells. Type of experiment: functional.
In experiment [4] the test system is MC-38. The experiment is described as follows: Antitumor activity against […] cells […] in B6D2F1 mouse assessed as tumor growth at 12.5 mg/kg, ip relative to control. Type of experiment: functional. To be noted: route intraperitoneal.
Experiment [5] has as its system P388. The experiment is described as follows: Antitumor activity against mouse P388 cells xenografted in B6D2F1 mouse assessed as median survival at 50 mg/kg, ip relative to control. Type of experiment: functional. To be noted: route intraperitoneal.
For experiment [6], the system named is L1210. The experiment is described as follows: Ratio of IC50 for human KB-3-1 cells to IC50 for mouse L1210 cells. Type of experiment: functional.
In experiment [7] the test system is P388. The experiment is described as follows: Antitumor activity against mouse P388 cells xenografted in B6D2F1 mouse assessed as median survival at 12.5 mg/kg, ip relative to control. Type of experiment: functional. To be noted: route intraperitoneal.
For experiment [8], the system named is P388. The experiment is described as follows: Antitumor activity against mouse P388 cells xenografted in B6D2F1 mouse assessed as median survival at 25 mg/kg, ip relative to control. The class given is functional. To be noted: route intraperitoneal.
In experiment [9] the test system is IGROV-1. The experiment can be described thus: Antitumor activity against human IGROV1 cells xenografted in BALB/c nude mouse assessed as increase in survival administered twice by intravenous route. The class given is functional, cell-based.
Experiment [10] has as its system IGROV-1. The experiment can be described thus: Antitumor activity against human IGROV1 cells xenografted in BALB/c nude mouse administered twice 6.25 mg/kg, iv relative to control. Type of experiment: functional.
The test system of experiment [11] is NCI-H460. The experiment is described as follows: Antitumor activity against human NCI-H460 cells xenografted in BALB/c nude mouse administered twice 6.25 mg/kg, iv relative to control. The class given is functional.
Experiment [12] deals with NCI-H460. The experiment can be described thus: Antitumor activity against human NCI-H460 cells xenografted in BALB/c nude mouse assessed as increase in survival administered twice by intravenous route. Type of experiment: functional, cell-based.
Experiment [13] deals with MC-38. The experiment is described as follows: Antitumor activity against […] cells […] in B6D2F1 mouse assessed as inhibition of tumor growth at 6.25 mg/kg, ip. The class given is functional. To be noted: MC-38, ip, route intraperitoneal, read-out: TGI.
The subject of experiment [14] is MC-38. The experiment can be described thus: Antitumor activity against […] cells […] in B6D2F1 mouse assessed as tumor growth at 6.25 mg/kg, ip relative to control. The settings on record: route intraperitoneal. Type of experiment: functional.
For experiment [15], the system named is A549. The experiment can be described thus: Antitumor activity against human A549 cells xenografted in BALB/c nude mouse assessed as increase in survival administered twice by intravenous route. Type of experiment: functional, cell-based.
Experiment [16] deals with OVCAR-3. The experiment is described as follows: Antitumor activity against human OVCAR-3 cells xenografted in BALB/c nude mouse assessed as increase in survival administered twice by intravenous route. Type of experiment: functional, cell-based.
For experiment [17], the system named is MC-38. The experiment is described as follows: Antitumor activity against […] cells […] in B6D2F1 mouse assessed as tumor growth at 200 mg/kg, ip relative to control. The class given is functional. To be noted: route intraperitoneal.
Experiment [18] relates to P388. The experiment can be described thus: Antitumor activity against mouse P388 cells xenografted in B6D2F1 mouse assessed as median survival at 200 mg/kg, ip relative to control. The class given is functional. To be noted: route intraperitoneal.
Experiment [19] relates to HCT-116. The experiment is described as follows: Cytotoxicity against human HCT116 cells. Type of experiment: functional, cell-based.
Experiment [20] relates to SMMC-7721. The experiment is described as follows: Cytotoxicity against human SMMC7721 cells. The class given is functional, cell-based.
In experiment [21] the test system is SGC-7901. The experiment is described as follows: Cytotoxicity against human SGC7901 cells. The class given is functional, cell-based.
The test system of experiment [22] is MCF7. The experiment is described as follows: Cytotoxicity against human MCF7 cells by MTT assay. Type of experiment: functional, cell-based.
Experiment [23] concerns HeLa. The experiment is described as follows: Cytotoxicity against human HeLa cells by MTT assay. The class given is functional, cell-based.
Experiment [24] relates to A-431. The experiment is described as follows: Cytotoxicity against human A431 cells by MTT assay. The class given is functional, cell-based.
The test system of experiment [25] is P388. The experiment can be described thus: In vivo cytotoxicity against mouse P388 cells at 8 mg/kg relative to control. Type of experiment: functional.
Experiment [26] in a line: Cytotoxicity against human 9KB cells. The class given is functional, cell-based.
Where [27] appears, read: Homo sapiens, HeLa, read-out: IC50.
Setting [28] is: Homo sapiens, A-431, read-out: IC50.

As for `COc1cc2c(c3c1c(=O)c1cc4ccccc4cc1n3C)C[C@H]([C@@]1(C)CO1)O2`, the IC50 in experiment [1] and in [2] was 10 nM in each case.

As for `COc1cc2c(c3c1c(=O)c1cc4ccccc4cc1n3C)C[C@H]([C@]1(C)CO1)O2`, the IC50 in [1] and in [2] was 10 nM throughout.

On to `COc1cc2c(c3c1c(=O)c1ccccc1n3C)[C@@H](OC(C)=O)[C@@H](OC(=O)c1ccccc1)C(C)(C)O2` (racemic), for which, in experiment [3], the “Ratio IC50” value is 5. Besides, the T/C in experiment [4] is 13%; in experiment [5] it was 201%.

As to `CCC(=O)O[C@@H]1c2c(cc(OC)c3c(=O)c4c5ccccc5ccc4n(C)c23)OC(C)(C)[C@@H]1OC(=O)CC` (racemic), the “Ratio IC50” value in experiment [6] is reported as 3.

Take `COc1cc2c(c3c1c(=O)c1c4ccccc4ccc1n3C)[C@@H](OC(=O)CC(C)C)[C@@H](OC(=O)CC(C)C)C(C)(C)O2` (racemic): the “Ratio IC50” value in experiment [6] amounted to 3.

For `COc1cc2c(c3c1c(=O)c1cc4ccccc4cc1n3C)[C@@H](OC(=O)CC(C)C)[C@@H](OC(=O)CC(C)C)C(C)(C)O2` (racemic), in [6], the “Ratio IC50” value is on record as 3.

For `COc1cc2c(c3c1c(=O)c1cc4ccccc4cc1n3C)[C@@H](OC(C)=O)[C@@H](OC(=O)CC(C)C)C(C)(C)O2` (racemic), in experiment [6], the “Ratio IC50” value was determined as 3.

On to `CCC(=O)O[C@@H]1c2c(cc(OC)c3c(=O)c4cc5ccccc5cc4n(C)c23)OC(C)(C)[C@@H]1OC(=O)CC` (racemic), for which, in experiment [6], the “Ratio IC50” value came out at 3.

Turning to `COc1cc2c(c3c1c(=O)c1c4ccccc4ccc1n3C)[C@@H](OC(C)=O)[C@@H](OC(C)=O)C(C)(C)O2` (racemic), the “Ratio IC50” value in [6] is 3.

Take `COc1cc2c(c3c1c(=O)c1c4ccccc4ccc1n3C)[C@@H](OC(C)=O)[C@@H](OC(=O)CC(C)C)C(C)(C)O2` (racemic): in experiment [6], the “Ratio IC50” value turned out to be 3.

Turning to `COc1cc2c(c3c1c(=O)c1ccccc1n3C)[C@@H](OC(C)=O)[C@H](OC(C)=O)C(C)(C)O2` (racemic), the T/C in experiment [7] was 181%.

In the case of `COc1cc2c(c3c1c(=O)c1ccccc1n3C)[C@@H](OC(C)=O)[C@@H](OC(C)=O)C(C)(C)O2` (racemic), the T/C in experiment [8] amounted to 289%; in experiment [4], 0%. In addition, the “Ratio IC50” value in experiment [3] is on record as 5.

With `COc1cc2c(c3c1c(=O)c1cc4ccccc4cc1n3C)[C@@H](OC(C)=O)[C@@H](OC(C)=O)C(C)(C)O2` (racemic), the T/C is 327% in [7], 193% in experiment [10], 162% in [11] and 4% in experiment [14]. For the same compound, the “Ratio IC50” value in experiment [6] is reported as 3. In addition, the Activity entry in experiment [9], in experiment [12], in experiment [15] and in experiment [16] was “Dose-dependent effect” in each case. Besides, the inhibition in vivo at 6.25 mg/kg in experiment [13] stood at 96%.

For the compound `COc1cc2c(c3c1c(=O)c1ccccc1n3C)C=CC(C)(C)O2` [ACRONINE], the T/C in experiment [17] came to 4%; in experiment [18] it was 125%.

With `COc1cc2c(c3c1c(=O)c1c4ccccc4ccc1n3C)C=CC(C)(C)O2` [BENZO[A]ACRONYCINE], the “Ratio IC50” value in [3] is on record as 4.

Regarding `COc1cc2c(c3c1c(=O)c1cc4ccccc4cc1n3C)C=CC(C)(C)O2` [BENZO[B]ACRONYCINE], in experiment [3], the “Ratio IC50” value turned out to be 4.

On to `COc1cc2c(c3c1c(=O)c1ccc4ccccc4c1n3C)C=CC(C)(C)O2` [BENZO[C]ACRONYCINE], for which it took 12100 nM to reach half-maximal inhibition in experiment [2] (IC50).

Consider `C=CC(C)(C)c1c(O)cc(O)c2c(=O)c3c(CC=C(C)C)c(O)c(O)cc3oc12` [CUDRATRICUSXANTHONE A], for which the 50% inhibitory concentration (IC50) in experiment [19], in [20] and in [21] was 4000 nM each time.

On to `COCC(C)(O)C1Cc2c(cc(O)c3c(=O)c4ccccc4n(C)c23)O1` (centres undefined) [GRAVACRIDONDIOLMONOMETHYL ETHER], for which the IC50 in experiment [22], in experiment [23] (setting [27]) and in experiment [24] (setting [28]) was 3000 nM throughout.

As to `Cn1c2ccccc2c(=O)c2c(O)cc3c(c21)CC(C(C)(O)CO)O3` (centres undefined) [GRAVACRIDONDIOL], the IC50 in [22], in experiment [23] (setting [27]) and in experiment [24] (setting [28]) was 3000 nM in each case.

`Cn1c2ccccc2c(=O)c2c(O)cc3c(c21)CC(C(O)(CO)CO)O3` (centres undefined) [GRAVACRIDONTRIOL]: the IC50 entry in [23] (hela) and in experiment [24] (a-431) was “Active” in each case.

`COc1cc2c(c3oc4c(O)cccc4c(=O)c13)C[C@H]([C@@]1(C)CO1)O2` [PSOROSPERMIN]: the T/C in [25] is given as 158%. Also, half-maximal inhibition in experiment [26] (IC50) required 290 nM.

As for `C=C(C)[C@H]1Cc2c(cc(O)c3c(=O)c4ccccc4n(C)c23)O1` [RUTACRIDONE], the half-maximal inhibitory concentration (IC50) in [22], in [23] (setting [27]) and in experiment [24] (setting [28]) was 3000 nM each time.
